Measured values taken from publication PMC12071533, “Acridine-Based Chalcone 1C and ABC Transporters” (International Journal of Molecular Sciences, 2025).

Target: T1, ABCB1 (multidrug resistance protein 1, P-glycoprotein) (Homo sapiens, UniProt P08183)
T1 construct: recombinant human ABCB1 in MDR1-Sf9 membranes
Assay: vanadate-sensitive ATPase assay (Pi release) in MDR1-Sf9 membranes; inhibition of verapamil-stimulated activity, biphasic in the activation test
Type: biochemical
Conditions: read-out: EC50 (the source's name)

IC50: 5.53 ± 0.97 µM
Structure (SMILES): COc1cccc(OC)c1C(=O)/C=C/c1c2ccccc2nc2ccccc12 [1C, (2E)-3-(acridin-9-yl)-1-(2,6-dimethoxyphenyl)prop-2-en-1-one]
